Like-named read-outs stand apart in the source and are kept apart here.
Tests used:
TXA2 synthase = target: T1, TXA2 synthase (Homo sapiens, UniProt P24557); assay: Thromboxane Synthase Inhibition, In Vitro; assay type: biochemical; settings: at 1 μM (value in parentheses), human platelet microsomes
T1 construct: microsomal fractions from human platelets as enzyme source; from tissue; host or cells: microsomal fraction of human platelets
T1 sequence (P24557 1-533): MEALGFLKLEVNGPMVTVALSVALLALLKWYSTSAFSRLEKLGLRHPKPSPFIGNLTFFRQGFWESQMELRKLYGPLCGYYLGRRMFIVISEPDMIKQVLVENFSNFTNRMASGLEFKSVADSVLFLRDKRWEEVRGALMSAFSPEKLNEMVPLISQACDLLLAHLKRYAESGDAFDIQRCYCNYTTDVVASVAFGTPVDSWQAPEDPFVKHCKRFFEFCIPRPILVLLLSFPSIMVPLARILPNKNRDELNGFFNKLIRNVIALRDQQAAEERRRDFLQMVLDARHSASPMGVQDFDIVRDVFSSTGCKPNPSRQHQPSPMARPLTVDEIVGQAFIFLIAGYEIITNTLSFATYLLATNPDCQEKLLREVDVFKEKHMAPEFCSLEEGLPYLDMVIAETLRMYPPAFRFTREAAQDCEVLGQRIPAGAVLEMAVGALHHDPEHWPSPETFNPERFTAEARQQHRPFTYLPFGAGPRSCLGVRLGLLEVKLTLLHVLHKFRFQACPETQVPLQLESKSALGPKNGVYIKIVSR
Method: TXA2 synthase activity is measured by following the conversion of ^14 C-prostaglandin endoperoxide (PGH2) to ^14 C-thromboxane A2 (TXA2) using microsomal fractions from human platelets as enzyme source. In the aqueous incubation medium, the TXA2 decomposes rapidly into TXB2. The amount of TXA2 synthase is adjusted so that under the conditions of the assay approximately 80-90% of the substrate, PGH2, is converted to product in control tubes. To prepare ^14 C-PGH2, ^14 C-AA (50-60 mCi/mmole; Rose Chem.) is incubated with sheep seminal vesicular gland microsomes for 1.5 minutes at 37° C. and then the ^14 C-PGH2 is extracted with diethylether, purified on columns of Sephadex LH-20 or silicic acid, and stored in acetone at -70° C. Incubations are done as follows. Sufficient ^14 C-PGH2 yield a final substrate concentration of 10 μM (~30,000 cpm) is added to the incubation tubes and then the acetone is removed under nitrogen. […] The tubes are incubated at 22° C. for 2 minutes, the reaction is stopped and then the radioactive products and the unconverted PGH2 are extracted and analyzed by thin layer chromatography. […] The amount of ^14 C-PGH2 converted to products was used as a measure of TXA2 synthase activity. Inhibitors were tested initially at a final concentration of 100 μM. Results obtained with representative compounds of the present invention in this assay are summarized hereafter in Table I, II and III.

PAF = target: T2, PAF (Canis lupus familiaris, UniProt A0A8I3NSH0); assay: PAF Radioreceptor Binding Assay; settings: dog platelets, 3H-PAF
T2 construct: followed by 2×10^7 dog platelets; from tissue; host or cells: washed platelets from citrate-treated dog blood
T2 sequence (A0A8I3NSH0 1-343): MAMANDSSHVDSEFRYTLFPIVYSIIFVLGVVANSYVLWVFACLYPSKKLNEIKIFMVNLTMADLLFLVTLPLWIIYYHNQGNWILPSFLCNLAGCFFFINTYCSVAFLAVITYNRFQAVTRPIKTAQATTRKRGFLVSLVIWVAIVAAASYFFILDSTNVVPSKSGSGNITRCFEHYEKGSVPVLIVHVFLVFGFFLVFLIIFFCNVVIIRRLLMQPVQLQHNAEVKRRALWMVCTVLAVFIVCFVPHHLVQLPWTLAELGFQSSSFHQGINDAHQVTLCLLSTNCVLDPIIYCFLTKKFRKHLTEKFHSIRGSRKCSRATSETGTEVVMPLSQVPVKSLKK
Method: Platelet rich plasma is prepared by centrifugation of citrate-treated dog blood. Acidification to pH 6.5 with 0.15 M citric acid and centrifugation for 10 minutes at 1000 xg yields a platelet pellet which is then washed by resuspension in EDTA-Phosphate Buffered Saline (PBS) and recentrifuged. The washed platelet preparation is adjusted to 2×10^7 platelets/50 μl in 0.1% BSA-PBS. […] After mixing, incubating for 10 minutes at room temperature, and centrifuging for 1 minute in a Beckman Microfuge B (8000 xg), the pellet is removed by clipping off the tip of the tube, the platelets are solubilized with 200 μl of 50% methanol, and counted in 10 ml of Aquasol. […] Results obtained with representative compounds of the present invention in this assay are summarized hereinafter in Tables I, II and III.

LTD4 = assay: Leukotriene D4 (LTD4) Induced Arrhythmia Test; assay type: in vivo, guinea pig (Hartley); settings: 10 mg/kg i.v. 5 min. before LTD4; conscious guinea pigs
Method: Male Hartley guinea pigs are anesthetized with sodium pentobarbital and prepared for monitoring direct blood pressure and injecting drugs intravenously by catheterizing the right carotid artery and right jugular vein. Blood pressure, heart rate, and Lead II ECG are monitored in the conscious animal 24 hours later.
Intravenous administration of LTD4 (2.5 pg/kg) is associated with an increase in blood pressure lasting approximately 1-2 minutes followed by a decrease lasting approximately 5-15 minutes (FIG. 3). Abnormal beats consisting of premature ventricular contractions, ST elevation or depression, atrioventricular conduction block, or dissociated p waves begin during the rise in blood pressure; the peak effect occurs approximately 40 seconds after LTD4. The percent of abnormal beats was quantitated by determining the number present during the first 2 minutes after injection and calculating the percent increase above the control level. During the hypotensive response, the animal usually collapses during the 2nd or 3rd minute after LTD4.

[1] = Table II, read-out: TXA2 Synth. Inhib. % at (1μM)
[2] = Table I, read-out: TXA2 Syn. Inhib. (1μM)
[3] = Table III, read-out: TXA2 Synth. Inhib. % at (1 μM)

`CCCc1c(OCCCCCC(=O)NCCCCn2ccnc2)ccc(C(C)=O)c1O` gave an inhibition at 1 µM (TXA2 synthase; [1]) of 87% and an IC50 (PAF; Table II) of 1 µM.

`CCCc1c(OCCCCCC(=O)NCCCCc2ccccn2)ccc(C(C)=O)c1O` showed an inhibition at 1 µM (TXA2 synthase; [1]) of 0% and an IC50 (PAF; Table II) of 1 µM.

Compound `CCCc1c(OCCCCCC(=O)NCCCCOc2cccnc2)ccc(C(C)=O)c1O` has an inhibition at 1 µM (TXA2 synthase; [1]) of 93% and an IC50 (PAF; Table II) of 1 µM.

`CCCc1c(OCCCCCC(=O)NCCc2ccncc2)ccc(C(C)=O)c1O` showed an inhibition at 1 µM (TXA2 synthase; [1]) of 0% and an IC50 (PAF; Table II) of 1.75 µM.

`CCCc1c(OCCCCC(=O)NCCCCc2cccnc2)ccc(C(C)=O)c1O` [Example 1] was tested, and the IC50 (PAF; Table I) was 1 µM.

In the case of `CCCc1c(OCCCCCCCC(=O)NCCCCc2cccnc2)ccc(C(C)=O)c1O` [Example 2, 8-(4-Acetyl-3-hydroxy-2-propylphenoxy)-N-[4-(3-pyridinyl)butyl]octanamide], the IC50 (PAF; Table I) is reported as 1 µM.

Work on `CCCc1c(OCCCCCCC(=O)NCCCCc2cccnc2)ccc(C(C)=O)c1O` [Example 3, 7-(4-Acetyl-3-hydroxy-2-propylphenoxy)-N-[4-(3-pyridinyl)butyl]heptanamide] yielded an inhibition at 1 µM (TXA2 synthase; [2]) of 93% and an IC50 (PAF; Table I) of 1 µM.

In the case of `CCCc1c(OCCC(=O)NCCCCc2cccnc2)ccc(C(C)=O)c1O` [Example 6, 3-(4-Acetyl-3-hydroxy-2-propylphenoxy)-N-[4-(3-pyridinyl)butyl]propanamide], the inhibition at 1 µM (TXA2 synthase; [2]) is reported as 77% and the IC50 (PAF; Table I) is reported as 1 µM.

With `CCCc1c(OCC(=O)NCCCCc2cccnc2)ccc(C(C)=O)c1O` [Example 7, (4-Acetyl-3-hydroxy-2-propylphenoxy)-N-[4-(3-pyridinyl)butyl]acetamide] the inhibition at 1 µM (TXA2 synthase; [2]) was 81% and the IC50 (PAF; Table I) was 1.5 µM.

`CCCc1c(OCCCCCC(=O)NCCCCCCc2cccnc2)ccc(C(C)=O)c1O` [Example 8, 6-(4-Acetyl-3-hydroxy-2-propylphenoxy)-N-[6-(3-pyridinyl)hexyl]hexanamide] was tested, and the inhibition at 1 µM (TXA2 synthase; [2]) was 90% and the IC50 (PAF; Table I) was 1 µM.

With `CCCc1c(OCCCCCC(=O)NCCCc2cccnc2)ccc(C(C)=O)c1O` [Example 9, 6-(4-Acetyl-3-hydroxy-2-propylphenoxy)-N-[3-(3-pyridinyl)propyl]hexanamide] the inhibition at 1 µM (TXA2 synthase; [2]) was 78% and the IC50 (PAF; Table I) was 2 µM.

With `CCCc1c(OCCCCCC(=O)NCCc2cccnc2)ccc(C(C)=O)c1O` [Example 10, 6-(4-Acetyl-3-hydroxy-2-propylphenoxy)-N-[2-(3-pyridinyl)ethyl]hexanamide] the inhibition at 1 µM (TXA2 synthase; [2]) was 35% and the IC50 (PAF; Table I) was 0.5 µM.

In the case of `CCCc1c(OCCCC(=O)NCCCCCCc2cccnc2)ccc(C(C)=O)c1O` [Example 11, 4-(4-Acetyl-3-hydroxy-2-propylphenoxy)-N-[6-(3-pyridinyl)hexyl]butanamide], the inhibition at 1 µM (TXA2 synthase; [2]) is reported as 83% and the IC50 (PAF; Table I) is reported as 1 µM.

In the case of `CCCc1c(OCCCC(=O)NCCCc2cccnc2)ccc(C(C)=O)c1O` [Example 12, 4-(4-Acetyl-3-hydroxy-2-propylphenoxy)-N-[3-(3-pyridinyl)propyl]butanamide], the inhibition at 1 µM (TXA2 synthase; [2]) is reported as 51% and the IC50 (PAF; Table I) is reported as 1.5 µM.

With `CCCc1c(OCCCC(=O)NCCc2cccnc2)ccc(C(C)=O)c1O` [Example 13, 4-(4-Acetyl-3-hydroxy-2-propylphenoxy)-N-[2-(3-pyridinyl)ethyl]butanamide] the inhibition at 1 µM (TXA2 synthase; [2]) was 8% and the IC50 (PAF; Table I) was 0.4 µM.

`CCCc1c(OCCC(C)C(=O)NCCCCc2cccnc2)ccc(C(C)=O)c1O` (stereo not drawn) [Example 22, 4-(4-Acetyl-3-hydroxy-2-propylphenoxy)-2-methyl-N-[4-(3-pyridinyl)butyl]butanamide] gave an inhibition at 1 µM (TXA2 synthase; [3]) of 70% and an IC50 (PAF; Table III) of 1 µM.

`CCCc1c(OCC(C)CC(=O)NCCCCc2cccnc2)ccc(C(C)=O)c1O` (stereo not drawn) [Example 23, 4-(4-Acetyl-3-hydroxy-2-propylphenoxy)-3-methyl-N-[4-(3-pyridinyl)butyl]butanamide] showed an inhibition at 1 µM (TXA2 synthase; [3]) of 77% and an IC50 (PAF; Table III) of 0.2 µM.

`CCCc1c(OCCC(C)(C)C(=O)NCCCCc2cccnc2)ccc(C(C)=O)c1O` [Example 24, 4-(4-Acetyl-3-hydroxy-2-propylphenoxy)-2,2-dimethyl-N-[4-(3-pyridinyl)butyl]butanamide] was tested, and the inhibition at 1 µM (TXA2 synthase; [3]) was 55% and the IC50 (PAF; Table III) was 1 µM.

With `CCCc1c(OCC(C)CC(=O)NC(C)CCCc2cccnc2)ccc(C(C)=O)c1O` (stereo not drawn) [Example 26, 4-(4-Acetyl-3-hydroxy-2-propylphenoxy)-3-methyl-N-[1-methyl-4-(3-pyridinyl)butyl]-butanamide] the inhibition at 1 µM (TXA2 synthase; [3]) was 78% and the IC50 (PAF; Table III) was 1 µM.

`CCCc1c(OCCCC(=O)NC(C)CCCc2cccnc2)ccc(C(C)=O)c1O` (stereo not drawn) [Example 27, 4-(4-Acetyl-3-hydroxy-2-propylphenoxy)-N-[1-methyl-4-(3-pyridinyl)butyl]butanamide] gave an inhibition at 1 µM (TXA2 synthase; [3]) of 77% and an IC50 (PAF; Table III) of 0.3 µM.

`CCCc1c(OCCCNC(=O)NCCCCc2cccnc2)ccc(C(C)=O)c1O` [Example 30, N-[3-(4-acetyl-3-hydroxy-2-propylphenoxy)-propyl]-N'-[4-(3-pyridinyl)butyl]urea] gave an inhibition at 1 µM (TXA2 synthase; [3]) of 93% and an IC50 (PAF; Table III) of 0.7 µM.

`CCCc1c(OCCCC#CC(=O)NCCCCc2cccnc2)ccc(C(C)=O)c1O` [drawing 36] showed an inhibition at 1 µM (TXA2 synthase; [1]) of 88% and an IC50 (PAF; Table II) of 0.5 µM.

`CCCc1c(OCCCCCC(=O)NCCCCc2cccnc2)ccc(C(C)=O)c1O` [drawing 39] was tested, and the “Arrhy's (R/T)” value (LTD4) was 0/5, the “decrease in blood pressure (.dwnarw.XABP)” value (from here on “decrease in blood pressure”) (LTD4) was -16 ± 6 Δmm Hg and the “increase in blood pressure (.uparw.XABP)” value (LTD4) was 6 ± 3 Δmm Hg.

In the case of `CCCc1c(OCCCC(=O)NCCCCc2cccnc2)ccc(C(C)=O)c1O` [drawing 40], the “Arrhy's (R/T)” value (LTD4) is reported as 0/3, the “decrease in blood pressure” value (LTD4) is reported as -26 ± 8 Δmm Hg and the “increase in blood pressure (.uparw.XABP)” value (LTD4) is reported as 6 ± 6 Δmm Hg.

With `CCCc1c(OCCCCCC(=O)NCCCCc2cncnc2)ccc(C(C)=O)c1O` [drawing 41] the “Arrhy's (R/T)” value (LTD4) was 1/3, the “decrease in blood pressure” value (LTD4) was -44 ± 5 Δmm Hg and the “increase in blood pressure (.uparw.XABP)” value (LTD4) was 32 ± 2 Δmm Hg.

With `CCCc1c(OCC#CCCCC(=O)NCCCCc2cccnc2)ccc(C(C)=O)c1O` [drawing 42] the “Arrhy's (R/T)” value (LTD4) was 1/3, the “decrease in blood pressure” value (LTD4) was -44.5 Δmm Hg and the “increase in blood pressure (.uparw.XABP)” value (LTD4) was 18 ± 4 Δmm Hg.

Reference: US4672066A, “Derivatives of 4-acetyl-3-hydroxy-2-alkyl-phenoxycarboxylic acids” (Hoffmann-La Roche Inc., priority 1985, dated 1987)
